# Data from ChEMBL document CHEMBL2385028, “Augmentation of GABAergic neurotransmission by novel N-(substituted)-2-[4-(substituted)benzylidene]hydrazinecarbothioamides-a potential anticonvulsant approach” (Eur J Med Chem, 2013).
# Active and inactive are the calls of the source. The calls are words filed in the database; no cut-off is given here.
# What was measured:
# [1] = physchem; settings: octanol/phosphate buffer
# Description: Octanol-phosphate buffer partition coefficient, log P of the compound after 24 hrs by UV spectroscopic analysis
# [2] = tested on: Mus musculus; test: Anticonvulsant activity in albino CF-1 mouse assessed as protection against 6 Hz psychomotor seizure at 100 mg/kg, ip after […] by minimal clonic seizure test relative to control
# Description: Anticonvulsant activity in albino CF-1 mouse assessed as protection against 6 Hz psychomotor seizure at 100 mg/kg, ip after 0.25 hrs by minimal clonic seizure test relative to control
# [3] = tested on: Rattus norvegicus; test: Neurotoxicity in albino Sprague-Dawley rat assessed as motor impairment up to 600 mg/kg, ip measured for 4 hrs; format: toxicity, organism-based; set-up: dose 600 mg/kg, route intraperitoneal; settings: in vivo
# [4] = tested on: Rattus norvegicus; test: Anticonvulsant activity in albino Sprague-Dawley rat assessed as protection against pilocarpine-induced status epilepticus at 600 mg/kg, ip administered prior to pilocarpine-challenge; format: functional, organism-based; set-up: dose 600 mg/kg
# [5] = Neuroprotective activity in hippocampal slices (unknown origin) assessed as protection against NMDA-induced cell death by propidium-iodide staining-based fluorescence assay; format: functional, tissue-based; settings: Hippocampus
# [6] = tested on: Mus musculus; test: Anticonvulsant activity in albino CF-1 mouse assessed as protection against 6 Hz psychomotor seizure at 100 mg/kg, ip after 1 hr by minimal clonic seizure test relative to control; format: functional; settings: route intraperitoneal
# [7] = tested on: Mus musculus; test: Anticonvulsant activity in albino CF-1 mouse assessed as protection against 6 Hz psychomotor seizure at 100 mg/kg, ip after 0.5 hrs by minimal clonic seizure test relative to control; format: functional; settings: route intraperitoneal
# [8] = Neuroprotective activity in hippocampal slices (unknown origin) assessed as protection against kainic acid-induced cell death by propidium-iodide staining-based fluorescence assay; format: functional, tissue-based; settings: Hippocampus
# [9] = tested on: Mus musculus; test: Anticonvulsant activity in albino CF-1 mouse assessed as protection against 6 Hz psychomotor seizure at 100 mg/kg, ip after 4 hrs by minimal clonic seizure test; format: functional; settings: route intraperitoneal
# [10] = tested on: Mus musculus; test: Anticonvulsant activity in albino CF-1 mouse at 300 mg/kg, ip assessed as protection against maximal electroshock-induced seizures in half or more animals after 2 hrs; format: functional, organism-based; set-up: dose 300 mg/kg
# [11] = tested on: Mus musculus; test: Anticonvulsant activity in albino CF-1 mouse at 300 mg/kg, ip assessed as protection against maximal electroshock-induced seizures in half or more animals after 0.5 hrs; format: functional, organism-based; set-up: dose 300 mg/kg
# [12] = tested on: Rattus norvegicus; test: Effect on GABA levels in Wistar rat midbrain at 30 mg/kg, ip after 2 hrs measured per 100 mg tissue; format: functional; settings: route intraperitoneal
# [13] = tested on: Mus musculus; test: Anticonvulsant activity in albino CF-1 mouse assessed as protection against subcutaneous metrazole-induced seizures in half or more animals at 300 mg/kg, ip after 0.5 hrs; format: functional, organism-based; set-up: dose 300 mg/kg
# [14] = tested on: Rattus norvegicus; test: Effect on GABA levels in Wistar rat medulla oblongata at 30 mg/kg, ip after 2 hrs measured per 100 mg tissue; format: functional; settings: route intraperitoneal
# [15] = tested on: Mus musculus; test: Anticonvulsant activity in albino CF-1 mouse assessed as protection against subcutaneous metrazole-induced seizures in half or more animals at 300 mg/kg, ip after 4 hrs; format: functional, organism-based; set-up: dose 300 mg/kg
# [16] = tested on: Mus musculus; test: Anticonvulsant activity in albino CF-1 mouse assessed as protection against 6 Hz psychomotor seizure at 100 mg/kg, ip after 2 hrs by minimal clonic seizure test relative to control; format: functional; settings: route intraperitoneal
# [17] = tested on: Mus musculus; test: Anticonvulsant activity in albino CF-1 mouse at 300 mg/kg, ip assessed as protection against maximal electroshock-induced seizures in half or more animals after 4 hrs relative to control; format: functional; settings: route intraperitoneal
# [18] = tested on: Mus musculus; test: Anticonvulsant activity in ip dosed albino CF-1 mouse assessed as protection against 6 Hz psychomotor seizure after 4 hrs by minimal clonic seizure test; format: functional; settings: albino CF-1, ip
# [19] = tested on: Rattus norvegicus; test: Effect on GABA levels in Wistar rat olfactory lobe at 30 mg/kg, ip after 2 hrs measured per 100 mg tissue; format: functional; settings: route intraperitoneal
# [20] = tested on: Mus musculus; test: Anticonvulsant activity in ip dosed albino CF-1 mouse assessed as protection against maximal electroshock-induced seizures in half or more animals after 4 hrs; format: functional; settings: albino CF-1, ip, read-out: MED
# [21] = tested on: Rattus norvegicus; test: Effect on GABA levels in Wistar rat cerebellum at 30 mg/kg, ip after 2 hrs measured per 100 mg tissue; format: functional; settings: route intraperitoneal
# [22] = Inhibition of voltage-dependent calcium channel subunit alpha-2/delta gabapentin binding site (unknown origin); set-up: species or system Homo sapiens
# [23] = tested on: Mus musculus; test: Anticonvulsant activity in albino CF-1 mouse at 100 mg/kg, ip assessed as protection against maximal electroshock-induced seizures in half or more animals after 4 hrs relative to control; format: functional; settings: route intraperitoneal
# [24] = tested on: Mus musculus; test: Anticonvulsant activity in ip dosed albino CF-1 mouse assessed as protection against maximal electroshock-induced seizures in half or more animals after 2 hrs; format: functional; settings: albino CF-1, ip, read-out: MED
# [25] = tested on: Mus musculus; test: Anticonvulsant activity in ip dosed albino CF-1 mouse assessed as protection against maximal electroshock-induced seizures in half or more animals after 0.5 hrs; format: functional; settings: albino CF-1, ip, read-out: MED
# [26] = tested on: Mus musculus; test: Anticonvulsant activity in albino CF-1 mouse at 300 mg/kg, ip assessed as protection against maximal electroshock-induced seizures in half or more animals after 4 hrs; format: functional, organism-based; set-up: dose 300 mg/kg
# [27] = tested on: Mus musculus; test: Anticonvulsant activity in ip dosed albino CF-1 mouse assessed as protection against subcutaneous metrazole-induced seizures in half or more animals after 0.5 hrs; format: functional; settings: albino CF-1, 0.5 h, read-out: MED
smiles,measurement,setting,value
Cc1ccc(NC(=S)N/N=C/c2ccc(Oc3ccc4c(c3)OCO4)cc2)cc1,logP at 24 h,[1],5.34
S=C(N/N=C/c1ccc(Oc2ccc(Cl)cc2)cc1)Nc1ccccc1,logP at 24 h,[1],5.52
Fc1ccc(Oc2ccc(/C=N/NC(=S)Nc3ccccc3)cc2)cc1,Activity,[2],inactive
same,logP at 24 h,[1],5.09
S=C(N/N=C/c1ccc(Oc2ccc(Br)cc2)cc1)Nc1ccccc1,Activity,[2],inactive
same,logP at 24 h,[1],5.62
Cc1ccc(NC(=S)N/N=C/c2ccc(Oc3ccc(C)cc3)cc2)cc1,logP at 24 h,[1],5.84
COc1ccc(NC(=S)N/N=C/c2ccc(Oc3ccccc3)cc2)cc1,Activity,[3],Non-toxic
same,Activity,[4],inactive
same,Activity,[5],inactive
same,logP at 24 h,[1],4.99
same,Activity,[6],75%
same,Activity,[7],50%
same,Activity,[8],inactive
COc1ccc(NC(=S)N/N=C/c2ccc(Oc3ccc4c(c3)OCO4)cc2)cc1,logP at 24 h,[1],4.9
S=C(N/N=C/c1ccc(Oc2ccccc2)cc1)Nc1ccccc1,logP at 24 h,[1],4.9
O=[N+]([O-])c1ccc(Oc2ccc(/C=N/NC(=S)NC3CCCCC3)cc2)cc1,logP at 24 h,[1],5.51
COc1ccc(NC(=S)N/N=C/c2ccc(Oc3ccc(F)cc3)cc2)cc1,Activity,[9],25%
same,Activity,[2],inactive
same,logP at 24 h,[1],5.09
Cc1ccc(Oc2ccc(/C=N/NC(=S)NC3CCCCC3)cc2)cc1,logP at 24 h,[1],6.17
COc1ccc(NC(=S)N/N=C/c2ccc(Oc3ccc(Cl)cc3)cc2)cc1,logP at 24 h,[1],5.68
COc1ccc(NC(=S)N/N=C/c2ccc(Oc3ccc(Br)cc3)cc2)cc1,logP at 24 h,[1],5.84
COc1ccc(NC(=S)N/N=C/c2ccc(Oc3ccc(C)cc3)cc2)cc1,Activity,[10],inactive
same,Activity,[11],inactive
same,Activity,[3],Non-toxic
same,Activity,[12],58.09 mg
same,Activity,[4],inactive
same,Activity,[5],inactive
same,Activity,[13],inactive
same,logP at 24 h,[1],5.44
same,Activity,[14],50.08 mg
same,Activity,[6],100%
same,Activity,[15],inactive
same,Activity,[16],50%
same,Activity,[17],100%
same,ED50,[18],> 100 mg/kg
same,Activity,[8],inactive
same,Activity,[19],15.84 mg
same,minimal effective dose,[20],300 mg/kg
same,Activity,[21],27.02 mg
Cc1ccc(Oc2ccc(/C=N/NC(=S)Nc3ccccc3)cc2)cc1,logP at 24 h,[1],5.39
Cc1ccc(NC(=S)N/N=C/c2ccc(Oc3ccc(F)cc3)cc2)cc1,logP at 24 h,[1],5.48
Cc1ccc(NC(=S)N/N=C/c2ccc(Oc3ccc(Cl)cc3)cc2)cc1,logP at 24 h,[1],6.71
COc1ccc(NC(=S)N/N=C/c2ccc(Oc3ccc(Cl)c(C)c3)cc2)cc1,Activity,[2],inactive
same,logP at 24 h,[1],6.03
O=C(O)[C@H]1CNCC12CCCCC2,IC50,[22],0.12 µM
S=C(N/N=C/c1ccc(Oc2ccc3c(c2)OCO3)cc1)Nc1ccccc1,logP at 24 h,[1],4.8
O=[N+]([O-])c1ccc(Oc2ccc(/C=N/NC(=S)Nc3ccccc3)cc2)cc1,logP at 24 h,[1],4.95
S=C(N/N=C/c1ccc(Oc2ccccc2)cc1)NC1CCCCC1,logP at 24 h,[1],5.7
S=C(N/N=C/c1ccc(Oc2ccc(Cl)cc2)cc1)NC1CCCCC1,Activity,[10],inactive
same,Activity,[11],inactive
same,Activity,[23],100%
same,Activity,[3],Non-toxic
same,Activity,[12],51.76 mg
same,Activity,[4],inactive
same,Activity,[5],inactive
same,Activity,[13],inactive
same,Activity,[2],inactive
same,logP at 24 h,[1],6.44
same,Activity,[14],47.24 mg
same,Activity,[6],75%
same,Activity,[15],inactive
same,Activity,[7],75%
same,ED50,[18],> 100 mg/kg
same,Activity,[8],inactive
same,Activity,[19],14.81 mg
same,minimal effective dose,[20],100 mg/kg
same,Activity,[21],24.43 mg
Fc1ccc(Oc2ccc(/C=N/NC(=S)NC3CCCCC3)cc2)cc1,Activity,[2],inactive
same,logP at 24 h,[1],5.82
same,Activity,[16],50%
Cc1ccc(NC(=S)N/N=C/c2ccc(Oc3ccc([N+](=O)[O-])cc3)cc2)cc1,logP at 24 h,[1],5.23
Cc1ccc(NC(=S)N/N=C/c2ccc(Oc3ccc(Br)cc3)cc2)cc1,logP at 24 h,[1],6.23
O=C1NC(=O)C(c2ccccc2)(c2ccccc2)N1 [PHENYTOIN],Activity,[13],inactive
same,Activity,[15],inactive
same,minimal effective dose,[24],30 mg/kg
same,minimal effective dose,[20],30 mg/kg
same,minimal effective dose,[25],30 mg/kg
S=C(N/N=C/c1ccc(Oc2ccc(Br)cc2)cc1)NC1CCCCC1,Activity,[2],inactive
same,logP at 24 h,[1],6.36
S=C(N/N=C/c1ccc(Oc2ccc3ccccc3c2)cc1)Nc1ccccc1,logP at 24 h,[1],6.07
COc1ccc(NC(=S)N/N=C/c2ccc(Oc3ccc([N+](=O)[O-])cc3)cc2)cc1,logP at 24 h,[1],4.9
Cc1cc(Oc2ccc(/C=N/NC(=S)NC3CCCCC3)cc2)ccc1Cl,Activity,[2],inactive
same,logP at 24 h,[1],6.76
same,Activity,[6],75%
Cc1cc(Oc2ccc(/C=N/NC(=S)Nc3ccccc3)cc2)ccc1Cl,Activity,[2],inactive
same,logP at 24 h,[1],6.03
Cc1ccc(NC(=S)N/N=C/c2ccc(Oc3ccc4ccccc4c3)cc2)cc1,logP at 24 h,[1],6.56
CCCC(CCC)C(=O)[O-].[Na+] [VALPROATE SODIUM],Activity,[10],inactive
same,Activity,[11],inactive
same,Activity,[15],inactive
same,Activity,[26],inactive
same,minimal effective dose,[27],300 mg/kg
S=C(N/N=C/c1ccc(Oc2ccc3c(c2)OCO3)cc1)NC1CCCCC1,logP at 24 h,[1],5.56
Cc1ccc(NC(=S)N/N=C/c2ccc(Oc3ccccc3)cc2)cc1,Activity,[2],inactive
same,logP at 24 h,[1],5.28
same,Activity,[7],50%
S=C(N/N=C/c1ccc(Oc2ccc3ccccc3c2)cc1)NC1CCCCC1,logP at 24 h,[1],6.79
COc1ccc(NC(=S)N/N=C/c2ccc(Oc3ccc4ccccc4c3)cc2)cc1,logP at 24 h,[1],6.11
